According to US20110245190A1, “METHOD FOR IMPROVING POST SURGERY VISUAL ACUITY OUTCOME WITH AZITHROMYCIN” (priority 2009, published 2011):

Tested on: patients with contact lens-related dry eye disease (CLDE)
Assay: Study of azithromycin 1% ophthalmic solution vs rewetting drops over four weeks in contact lens-related dry eye disease (Example 2)
Format: in vivo, human
Text: The objective of this study is to compare the efficacy of study drug, AZASITE® (azithromycin ophthalmic solution) 1%, versus rewetting drops (Visine for Contacts™) over a four week treatment period in patients with contact lens-related dry eye disease (CLDE).
Subjects are 18 years of age or older. Subjects have a positive diagnosis of CLDE based on their responses to the Contact Lens Dry Eye Questionnaire (CLDEQ, Nichols et al, Cornea 21:469-75 (2002)) and a score of ≧2, (i.e., moderate severity on a 0-4 scale, where 0=no ocular dryness and 4=very severe ocular dryness) on a self-reported assessment of ocular dryness at the screening Visit. A total of 50 subjects are enrolled in the study.
Subjects were asked to rate their level of ocular dryness on a 0-4 scale. Tear osmolarity was then assessed for each eye using the TearLab Osmolarity System®. Subjects were then instructed to remove their contact lenses and slit-lamp biomicroscopy and external eye exams were performed. Fluorescein corneal staining was then performed on each eye (5 μl of 2% fluorescein applied to the ocular surface) and graded according to National Eye Institute (NEI) criteria.
Eligible subjects were then randomized to receive either azithromycin 1% ophthalmic solution (AzaSite®), or rewetting drops (Visine for Contacts™) in a 1:1 ratio and they were not masked as to the treatment assignment. Subjects randomized to azithromcyin 1% were instructed to administer one drop to each eye BID for the first two days and then one drop QD for days 3-29. Subjects randomized to rewetting drops were instructed to administer one to two drops QID throughout the 29 day treatment period. The first dose of study medication was self-administered at the clinic once dosing instructions were provided. […]
Concomitant medication usage was recorded, an AE query performed, study medication and diary cards were collected. Subjects underwent habitual HCVA and LCVA assessment, completed the CLDEQ, and had tear osmolarity readings measured prior to removing their contact lenses. […]

Compound: CC[C@H]1OC(=O)[C@H](C)[C@@H](O[C@H]2C[C@@](C)(OC)[C@@H](O)[C@H](C)O2)[C@H](C)[C@@H](O[C@@H]2O[C@H](C)C[C@H](N(C)C)[C@H]2O)[C@](C)(O)C[C@@H](C)CN(C)[C@H](C)[C@@H](O)[C@]1(C)O [azithromycin]
- mean ocular dryness scores, AM assessment (FIG. 2, prior to instilling study medication): lower
- mean ocular dryness scores, PM assessment (FIG. 3, prior to lens removal): lower
- mean daily duration of comfortable contact lens wear time (each of the weekly endpoints (Weeks 1-4), FIG. 1): longer
